From US7709223B2, “Method for detecting bacteria with chromogenic substrates for β-D-ribofuranosidase” (priority 2001, dated 2010)
Counter-ions that a name gives are not always drawn.

Tests used:
Experiment in all cases: Hydrolysis on Columbia agar with ferric ammonium citrate
Type in all cases: cell-based
Salmonella orthmarchen = tested on: Salmonella orthmarchen; design: key to the marks not given beside the values; conditions: Salmonella orthmarchen SAX 59
Description: (§1) The chromogenic β-D-ribofuranoside substrate was added to Columbia agar at a substrate concentration of 300 mg/l. Ferric ammonium citrate was included at 500 mg/l. All ingredients were autoclaved at 116° C. for 20 minutes to ensure sterilisation. Agar plates were then prepared in 90 mm petri dishes. The substrate caused a yellow colouration of the agar.
(§2) For each strain tested, a bacterial suspension was prepared in sterile deionised water at an inoculum of approximately 1.5×10^8 colony forming units per ml. This was achieved using a densitometer. 1 μl of each bacterial suspension was then inoculated onto each plate using a multipoint inoculator. Strains were inoculated in parallel onto Columbia agar containing ferric ammonium citrate with no substrate (negative control).
(§3) After 18 hours incubation, strains were examined visually for the presence of colour. Any strains producing a black colouration on substrate containing media but not on the negative control plates were deemed to be hydrolysing the substrate.

Shigella flexneri = tested on: Shigella flexneri; design: key to the marks not given beside the values
Description: as §1, §2, §3

Aeromonas caviae = tested on: Aeromonas caviae; design: key to the marks not given beside the values; conditions: Aeromonas caviae NCTC 10852
Description: as §1, §2, §3

Serratia marcescens = tested on: Serratia marcescens; design: key to the marks not given beside the values; conditions: Serratia marcescens NCTC 10211
Description: as §1, §2, §3

Bacillus cereus = Bacillus cereus NCTC
Description: as §1, §2, §3

[1] = tested on: Haemolytic streptococcus A
Description: as §1, §2, §3

Listeria ivanovii = Listeria ivanovii PHLS wild
Description: as §1, §2, §3

Vibrio anguillarum = Vibrio anguillarum NCTC 12159
Description: as §1, §2, §3

Enterococcus faecalis = tested on: Enterococcus faecalis
Description: as §1, §2, §3

enterococci = enterococci (‘faecal streptococci’)
Description: as §1, §2, §3

Streptococcus milleri = Streptococcus milleri wild
Description: as §1, §2, §3

A. baumanii = A. baumanii ATCC 19606
Description: as §1, §2, §3

Streptococcus crista = Streptococcus crista NCTC 12479
Description: as §1, §2, §3

[2] = tested on: Haemolytic streptococcus G
Description: as §1, §2, §3

Streptococcus mitis = Streptococcus mitis NCTC 12261
Description: as §1, §2, §3

[3] = tested on: Staphylococcus epidermidis
Description: as §1, §2, §3

[4] = tested on: Streptococcus constellatus; conditions: Streptococcus constellatus NCTC 11325
Description: as §1, §2, §3

[5] = tested on: Providencia alcalifaciens
Description: as §1, §2, §3

Vibrio vulnificus = tested on: Vibrio vulnificus
Description: as §1, §2, §3

[6] = tested on: Streptococcus vestibularis; conditions: Streptococcus vestibularis NCTC 12166
Description: as §1, §2, §3

staphylococci = conditions: all of the staphylococci
Description: as §1, §2, §3

[7] = tested on: Haemolytic streptococcus C
Description: as §1, §2, §3

Vibrio cincinnatiensis = Vibrio cincinnatiensis NCTC 12012
Description: as §1, §2, §3

P. rettgeri = P. rettgeri NCTC 7475
Description: as §1, §2, §3

Enterococcus faecium = tested on: Enterococcus faecium
Description: as §1, §2, §3

A. calcoaceticus = A. calcoaceticus ATCC 7844
Description: as §1, §2, §3

Vibrio cholerae = tested on: Vibrio cholerae
Description: as §1, §2, §3

[8] = tested on: Arcanobacterium haemolyticus
Description: as §1, §2, §3

Vibrio mimicus = Vibrio mimicus NCTC 11435
Description: as §1, §2, §3

Vibrio furnissii = Vibrio furnissii NCTC 11218
Description: as §1, §2, §3

Enterococcus casseflavus = Enterococcus casseflavus NCTC 12361
Description: as §1, §2, §3

P. penneri = P. penneri PPE 1
Description: as §1, §2, §3

O=c1cc(-c2ccc(OC3OC(CO)C(O)C3O)c(O)c2)oc2ccccc12 [DHF-riboside, 3′,4′-Dihydroxyflavone-4′-β-D-ribofuranoside sodium salt]
β-Riboside (hydrolysis) (Salmonella orthmarchen): ++ | β-Riboside (hydrolysis) (Shigella flexneri; Shigella flexneri NCTC 8192): ++ | β-Riboside (hydrolysis) (Shigella flexneri; Shigella flexneri NCTC 9723): ++ | β-Riboside (hydrolysis) (Shigella flexneri; Shigella flexneri NCTC 9780): ++ | β-Riboside (hydrolysis) (Aeromonas caviae): ++ | β-Riboside (hydrolysis) (Serratia marcescens): ++ | β-Ribofuranoside (hydrolysis) (Bacillus cereus): − | β-Ribofuranoside (hydrolysis) ([1]; Reference No. 1): − | β-Ribofuranoside (hydrolysis) ([1]; Reference No. 2): − | β-Ribofuranoside (hydrolysis) ([1]; Reference No. 3): − | β-Ribofuranoside (hydrolysis) (Listeria ivanovii): + | β-Riboside (hydrolysis) (Vibrio anguillarum): − | β-Ribofuranoside (hydrolysis) (Enterococcus faecalis; Reference No. 1): − | β-Ribofuranoside (hydrolysis) (Enterococcus faecalis; Reference No. 2): + | β-Ribofuranoside (hydrolysis) (Enterococcus faecalis; Reference No. 3): + | β-Ribofuranoside (hydrolysis) (Enterococcus faecalis; Reference No. 4): + | β-Ribofuranoside (hydrolysis) (Enterococcus faecalis; Reference No. 5): + | β-Ribofuranoside (hydrolysis) (Enterococcus faecalis; Reference No. 6): + | β-Ribofuranoside (hydrolysis) (Enterococcus faecalis; Reference No. 7): − | Activity with the substrate (enterococci): variable | β-Ribofuranoside (hydrolysis) (Streptococcus milleri): − | β-Riboside (hydrolysis) (A. baumanii): − | β-Ribofuranoside (hydrolysis) (Streptococcus crista): − | β-Ribofuranoside (hydrolysis) ([2]; Reference No. 1): − | β-Ribofuranoside (hydrolysis) ([2]; Reference No. 2): − | β-Ribofuranoside (hydrolysis) ([2]; Reference No. 3): + | β-Ribofuranoside (hydrolysis) (Streptococcus mitis): − | β-Ribofuranoside (hydrolysis) ([3]; Staphylococcus epidermidis RB60): ++ | β-Ribofuranoside (hydrolysis) ([3]; Staphylococcus epidermidis RB62): + | β-Ribofuranoside (hydrolysis) ([3]; Staphylococcus epidermidis RB63): + | β-Ribofuranoside (hydrolysis) ([3]; Staphylococcus epidermidis RB64): + | β-Ribofuranoside (hydrolysis) ([3]; Staphylococcus epidermidis RB65): + | β-Ribofuranoside (hydrolysis) [4]: − | β-Riboside (hydrolysis) ([5]; Providencia alcalifaciens PAL 1): + | β-Riboside (hydrolysis) ([5]; Providencia alcalifaciens PAL 2): − | β-Riboside (hydrolysis) (Vibrio vulnificus; Vibrio vulnificus NCTC 11066): − | β-Riboside (hydrolysis) (Vibrio vulnificus; Vibrio vulnificus NCTC 11067): − | β-Ribofuranoside (hydrolysis) [6]: − | Activity with the substrate (staphylococci): positive | β-Ribofuranoside (hydrolysis) ([7]; Reference No. 1): − | β-Ribofuranoside (hydrolysis) ([7]; Reference No. 67736): − | β-Ribofuranoside (hydrolysis) ([7]; Reference No. 68350): − | β-Riboside (hydrolysis) (Vibrio cincinnatiensis): − | β-Riboside (hydrolysis) (P. rettgeri): + | β-Ribofuranoside (hydrolysis) (Enterococcus faecium; Enterococcus faecium 121285 - wild ′99): − | β-Ribofuranoside (hydrolysis) (Enterococcus faecium; Enterococcus faecium, Reference No. 1): − | β-Ribofuranoside (hydrolysis) (Enterococcus faecium; Enterococcus faecium, Reference No. 2): − | β-Ribofuranoside (hydrolysis) (Enterococcus faecium; Enterococcus faecium, Reference No. 3): − | β-Ribofuranoside (hydrolysis) (Enterococcus faecium; Enterococcus faecium, Reference No. 4): + | β-Ribofuranoside (hydrolysis) (Enterococcus faecium; Enterococcus faecium, Reference No. 5): − | β-Ribofuranoside (hydrolysis) (Enterococcus faecium; Enterococcus faecium, Reference No. 6): + | β-Ribofuranoside (hydrolysis) (Enterococcus faecium; Enterococcus faecium, Reference No. 7): − | β-Riboside (hydrolysis) (A. calcoaceticus): − | β-Riboside (hydrolysis) (Vibrio cholerae; Vibrio cholera NCTC 6585): − | β-Riboside (hydrolysis) (Vibrio cholerae; Vibrio cholera NCTC 7270): − | β-Riboside (hydrolysis) (Vibrio cholerae; Vibrio cholera NCTC 8021): − | β-Riboside (hydrolysis) (Vibrio cholerae; Vibrio cholera NCTC 10732): − | β-Riboside (hydrolysis) (Vibrio cholerae; Vibrio cholera NCTC 12945): − | β-Riboside (hydrolysis) (Vibrio cholerae; Vibrio cholerae NCTC 7254): − | β-Riboside (hydrolysis) (Vibrio cholerae; Vibrio cholerae NCTC 8042): − | β-Riboside (hydrolysis) (Vibrio cholerae; Vibrio cholerae NCTC 10255): − | β-Riboside (hydrolysis) (Vibrio cholerae; Vibrio cholerae NCTC 10954): − | Activity with the substrate ([8]; Arcanobacterium haemolyticum): active | β-Ribofuranoside (hydrolysis) ([8]; Arcanobacterium haemolyticus NCTC 52): + | β-Riboside (hydrolysis) (Vibrio mimicus): − | β-Riboside (hydrolysis) (Vibrio furnissii): − | β-Ribofuranoside (hydrolysis) (Enterococcus casseflavus): − | β-Riboside (hydrolysis) (P. penneri): −
